From patent US12503490B2, “Method of treating Gram-negative bacterial infection with isolated darobactin compounds” (Northeastern University, priority 2018, dated 2025) come the findings set out here.

This assay concerns E. coli. Description: Antagonization assay by lipopolysaccharide (LPS). The format is cell-based. Set-up: key: +: grown; −: not grown. The procedure:
darobactin A is a large compound of 966 Da molecular weight. The limit for penetration into Gram-negative bacteria is around 500 Da. It therefore seemed possible that darobactin A acted on the cell surface, similarly to polymyxin which targets lipopolysaccharide (LPS). In order to test this, activity of darobactin A was tested in the presence of LPS. E. coli was inoculated into 5 mL MHIIB, and grown until the cell density reach to OD600=0.1-0.9. The cell suspension was diluted to OD600=0.002 with 2×MHIIB. 40 μL of LPS solution (final concentration range from 0 to 800 μg/mL) and 2 μL of 2×MIC antibiotic solution (final concentration: polymyxin; 0.5 μg/mL, ampicillin; 16 μg/mL, darobactin A; 16 μg/mL) were mixed in a 96-well plate and fill up to 50 μL by sterile dI water. LPS and antibiotic solutions were mixed with 50 μL of E. coli cell suspensions, and incubated at 37° C. for 20 hours. The growth of E. coli was determined visually (Table 3).

Turning to Polymyxin B, the “growth of E. coli with 2× MIC antibiotic” value is “−” (LPS 0 μg/mL), “−” (LPS 3.13 μg/mL), “+” (LPS 6.25 μg/mL) and “+” (LPS 800 μg/mL).

As to `CC1(C)S[C@@H]2[C@H](NC(=O)[C@H](N)c3ccccc3)C(=O)N2[C@H]1C(=O)O` [Ampicillin], the “growth of E. coli with 2× MIC antibiotic” value is “−” (LPS 0 μg/mL), “−” (LPS 3.13 μg/mL), “−” (LPS 6.25 μg/mL) and “−” (LPS 800 μg/mL).
